Calls of active or inactive are those of the source. The rule behind the calls is not given here.
Experiments:
A549 [1] = experiment: Antiproliferative activity against human A549 cells after 72 hrs by MTT assay; format: functional, cell-based; conditions: A549, 72 h
TE-1 = experiment: Antiproliferative activity against human TE1 cells after 72 hrs by MTT assay; format: functional, cell-based; conditions: TE-1, 72 h
PC-3 = experiment: Antiproliferative activity against human PC3 cells after 72 hrs by MTT assay; format: functional, cell-based; conditions: PC-3, 72 h
MGC-803 = experiment: Antiproliferative activity against human MGC803 cells after 72 hrs by MTT assay; format: functional, cell-based; conditions: MGC-803, 72 h
GES1 = experiment: Antiproliferative activity against human GES-1 cells after 72 hrs by MTT assay; format: cell-based; conditions: GES1, 72 h
A549 [2] = experiment: Antimigratory activity in human A549 cells after 72 hrs by Hoechst 33258 staining based transwell assay; format: functional, cell-based
A549 [3] = experiment: Antiinvasive activity in human A549 cells after 72 hrs by Hoechst 33258 staining based matrigel assay; format: functional, cell-based
A549 [4] = experiment: Up regulation of E-cadherin expression in human A549 cells up to 2 uM after 72 hrs by Western blot analysis; format: functional, cell-based
A549 [5] = experiment: Induction of apoptosis in human A549 cells assessed as induction of apoptotic bodies at 2 uM after 72 hrs by Hoechst 33258 staining based fluorescence microscopic method; format: functional, cell-based
A549 [6] = experiment: Induction of apoptosis in human A549 cells after 72 hrs by Annexin-V-FITC/propidium iodide staining based flow cytometric analysis; format: functional, cell-based
[7] = Selectivity index, ratio of IC50 for human GES-1 cells to IC50 for human A549 cells; format: toxicity; conditions: GES-1 cells versus A549 cells, read-out: Ratio IC50
A549 [8] = experiment: Induction of apoptosis in human A549 cells assessed as increase in Bax level up to 2 uM after 72 hrs by Western blot analysis; format: functional, cell-based
A549 [9] = experiment: Induction of apoptosis in human A549 cells assessed as chromatin shrinkage at 2 uM after 72 hrs by Hoechst 33258 staining based fluorescence microscopic method; format: functional, cell-based
A549 [10] = experiment: Antimigratory activity in human A549 cells after 72 hrs by inverted microscopic based wound healing assay; format: functional, cell-based
A549 [11] = experiment: Downregulation of N-cadherin expression in human A549 cells up to 2 uM after 72 hrs by Western blot analysis; format: functional, cell-based
A549 [12] = experiment: Anticlonogenic activity against human A549 cells at 1 uM after 10 days by crystal violet staining based assay relative to control; format: functional
A549 [13] = experiment: Downregulation of vimentin expression in human A549 cells up to 2 uM after 72 hrs by Western blot analysis; format: functional, cell-based
A549 [14] = experiment: Anticlonogenic activity against human A549 cells after 10 days by crystal violet staining based assay; format: functional, cell-based
A549 [15] = experiment: Induction of apoptosis in human A549 cells assessed as cell rounding at 2 uM after 72 hrs by Hoechst 33258 staining based fluorescence microscopic method; format: functional
A549 [16] = experiment: Induction of apoptosis in human A549 cells assessed as reduction in Bcl-2 level up to 2 uM after 72 hrs by Western blot analysis; format: functional, cell-based

Row | Compound | IC50 (A549 [1]) | IC50 (TE-1) | IC50 (PC-3) | IC50 (MGC-803) | also measured
1 | CCCSc1nc(Cl)c2c(n1)N(Cc1ccccc1)C(C(=O)NCC(C)C)N2 (configuration not stated) | 48.2 µM | 46.6 µM | > 64 µM | 58.4 µM | 
2 | CCCSc1nc(Cl)c2c(n1)N(Cc1ccccc1)C(C(=O)N1CCOCC1)N2 (configuration not stated) | > 64 µM | 43.7 µM | 53.9 µM | 30.2 µM | 
3 | CCCSc1nc(Cl)c2c(n1)N(Cc1ccccc1)C(C(=O)NCCCc1ccccc1)N2 (configuration not stated) | 9.43 µM | 22.9 µM | 12.7 µM | 16.9 µM | 
4 | CCCSc1nc(Cl)c2c(n1)N(Cc1ccccc1)C(C(=O)OCC)N2 (configuration not stated) | 13.8 µM | > 64 µM | 62.5 µM | 18.5 µM | 
5 | CCCSc1nc(Cl)c2c(n1)N(CC1CCCCC1)C(C(=O)N1CCN(C)CC1)N2 (configuration not stated) | 13.2 µM | > 64 µM | 12.8 µM | > 64 µM | 
6 | CCCSc1nc(Cl)c2c(n1)N(Cc1ccccc1)C(C(=O)O)N2 (configuration not stated) | 10.7 µM | > 64 µM | 49.2 µM | > 64 µM | 
7 | CCCSc1nc(Cl)c2c(n1)N(Cc1ccccc1)C(C(=O)NCCCN1CCOCC1)N2 (configuration not stated) | 42.2 µM | 51.1 µM | 45.1 µM | > 64 µM | 
8 | CCCSc1nc(Cl)c2c(n1)N(Cc1ccccc1)C(C(=O)NCCc1ccccc1)N2 (configuration not stated) | 36.7 µM | 31.2 µM | 41.3 µM | 46.9 µM | 
9 | CCCSc1nc(Cl)c2c(n1)N(Cc1ccccc1)C(C(=O)Nc1ccccc1)N2 (configuration not stated) | 50.2 µM | > 64 µM | > 64 µM | 58.4 µM | 
10 | CCCSc1nc(Cl)c2c(n1)N(Cc1ccccc1)C(C(=O)N1CCN(C(=O)OC(C)(C)C)CC1)N2 (configuration not stated) | 29 µM | 31.2 µM | 47.1 µM | 32 µM | 
11 | CCCSc1nc(Cl)c2c(n1)N(Cc1ccccc1)C(C(=O)N1CCN(Cc3ccccc3)CC1)N2 (configuration not stated) | 14.4 µM | 48.2 µM | 57.3 µM | 51.2 µM | 
12 | O=c1[nH]cc(F)c(=O)[nH]1 [FLUOROURACIL] | 13.2 µM | 16.5 µM | 12.3 µM | 8.66 µM | IC50 (GES1): 12.5 µM
13 | CCCSc1nc(Cl)c2c(n1)N(Cc1ccccc1)C(C(=O)NCCc1c[nH]c3ccccc13)N2 (configuration not stated) | 48.8 µM | 30 µM | > 64 µM | 27 µM | 
14 | CCCSc1nc(Cl)c2c(n1)N(CCNC(=O)OC(C)(C)C)C(C(=O)N1CCN(C)CC1)N2 (configuration not stated) | 12.4 µM | 51.8 µM | > 64 µM | 59.3 µM | 
15 | CCCSc1nc(Cl)c2c(n1)N(Cc1ccccc1)C(C(=O)N1CCN(C)CC1)N2 (configuration not stated) | 2.8 µM | 42.5 µM | 29.8 µM | > 64 µM | Activity (A549 [2]): Dose-dependent effect; Activity (A549 [3]): Dose-dependent effect; Activity (A549 [4]): Active; Activity (A549 [5]): Active; Activity (A549 [6]): Dose-dependent effect; selectivity ratio [7]: 108; Activity (A549 [8]): Active; IC50 (GES1): 303 µM; Activity (A549 [9]): Active; Activity (A549 [10]): Dose-dependent effect; Activity (A549 [11]): Active; Activity (A549 [12]): 57%; Activity (A549 [13]): Active; Activity (A549 [14]): Dose-dependent effect; Activity (A549 [15]): Active; Activity (A549 [16]): Active
16 | CCCSc1nc(Cl)c2c(n1)N(Cc1ccco1)C(C(=O)N1CCN(C)CC1)N2 (configuration not stated) | 13.6 µM | 35 µM | 11.3 µM | 53.8 µM | 
17 | CCCSc1nc(Cl)c2c(n1)N(Cc1ccccc1)C(C(=O)NCCNC(=O)OC(C)(C)C)N2 (configuration not stated) | 53.2 µM | > 64 µM | 29.7 µM | > 64 µM | 
18 | CCCSc1nc(Cl)c2c(n1)N(Cc1cccs1)C(C(=O)N1CCN(C)CC1)N2 (configuration not stated) | 6.42 µM | 39.4 µM | 5.02 µM | 62.3 µM | 
19 | CCCSc1nc(Cl)c2c(n1)N(Cc1ccccc1)C(C(=O)N1CCSCC1)N2 (configuration not stated) | > 64 µM | 47.8 µM | 47.9 µM | 31.3 µM | 
20 | CCCSc1nc(Cl)c2c(n1)N(CCOC)C(C(=O)N1CCN(C)CC1)N2 (configuration not stated) | 61.8 µM | > 64 µM | 62.7 µM | > 64 µM | 

Reference: ChEMBL document CHEMBL4152199, “Discovery of 6-chloro-2-(propylthio)-8,9-dihydro-7H-purines containing a carboxamide moiety as potential selective anti-lung cancer agents” (Eur J Med Chem, 2018)
